Patent US9173888B1, “Treatment and inhibition of protozoal diseases with nandrolone and its derivatives” (priority 2014, dated 2015)

System: Leishmania major promastigotes
Test: Anti-leishmanial assay (promastigote culture, 72 h, microscopic counting)
Type: cell-based
Conditions: 72 h at 21-22° C., assays repeated thrice, read-out: Leishmanicidal Activity (IC50 in μM)

Row | Compound | IC50 [µM]
1 | C[C@]12CC[C@H]3[C@@H](CCC4=CC(=O)CC[C@@H]43)[C@@H]1C[C@H](O)[C@@H]2O [Compound 8, 16β,17β-Dihydroxy-19-nor-4-androsten-3-one] | 29.6
2 | C[C@]12CC[C@H]3[C@@H](C[C@@H](O)C4=CC(=O)CC[C@@]43O)[C@@H]1CC[C@@H]2O [Compound 4, 6β,10β,17β-Trihydroxy-19-nor-4-androsten-3-one] | 70.9
3 | C[C@]12CC[C@H]3[C@@H](CCC4=CC(=O)CC[C@@]43O)[C@@H]1C[C@@H](O)[C@@H]2O [Compound 3, 10β,16α,17β-Trihydroxy-19-nor-4-androsten-3-one] | 77.4
4 | C[C@]12CC[C@H]3[C@@H](CCC4=CC(=O)CC[C@@]43O)[C@@H]1CCC2=O [Compound 7, 10β-Hydroxy-19-nor-4-androsten-3,17-dione] | 61.1
5 | C[C@]12CC[C@H]3[C@@H](C[C@@H](O)C4=CC(=O)CC[C@@H]43)[C@@H]1CC[C@@H]2O [Compound 6, 6β,17β-Dihydroxy-19-nor-4-androsten-3-one] | 80.2
6 | C[C@]12[C@H](O)C[C@H]3[C@@H](CCC4=CC(=O)CC[C@@]43O)[C@@H]1CC[C@@H]2O [Compound 2, 10β,12β,17β-Trihydroxy-19-nor-4-androsten-3-one] | > 100
7 | C[C@]12CC[C@H]3[C@@H](CCC4=CC(=O)CC[C@@]43O)[C@@H]1CC[C@@H]2O [Compound 5, 10β,17β-Dihydroxy-19-nor-4-androsten-3-one] | 54.9

Same assay, conditions: Leishmania major, 72 h, 72 h at 21-22° C., assays repeated thrice, read-out: Leishmanicidal Activity (IC50 in μM)

Row | Compound | IC50 [µM]
8 | N=C(N)c1ccc(OCCCCCOc2ccc(C(=N)N)cc2)cc1 [Pentamidine, reference compound] | 5.09 ± 0.09
9 | C[C@]12CC[C@H]3[C@@H](CCC4=CC(=O)CC[C@@H]43)[C@@H]1CC[C@@H]2O [Compound 1, 17β-Hydroxy-19-nor-4-androsten-3-one, reference compound] | 29.6 to 80.2
10 | C[C@@H]1[C@H](O)[C@@H](C)/C=C/C=C/C=C/C=C/C=C/C=C/C=C/[C@H](O[C@@H]2O[C@H](C)[C@@H](O)[C@H](N)[C@@H]2O)C[C@@H]2O[C@](O)(C[C@@H](O)C[C@@H](O)[C@H](O)CC[C@@H](O)C[C@@H](O)CC(=O)O[C@H]1C)C[C@H](O)[C@H]2C(=O)O [Amphotericin B, reference compound] | 0.29 ± 0.05

Same assay, conditions: Leishmania major, 72 h, 72 h at 21-22° C., read-out: IC50 against leishmaniasis (unit printed as M)

Row | Compound | IC50 [µM]
11 | N=C(N)c1ccc(OCCCCCOc2ccc(C(=N)N)cc2)cc1 [Pentamidine, reference compound] | 5.09

Same assay, conditions: read-out: Leishmanicidal Activity (IC50 in μM), 72 h at 21-22° C., assays repeated thrice, listed as Nandrolone (1)

Row | Compound | IC50 [µM]
12 | C[C@]12CC[C@H]3[C@@H](CCC4=CC(=O)CC[C@@H]43)[C@@H]1CC[C@@H]2O [Compound 1, 17β-Hydroxy-19-nor-4-androsten-3-one, reference compound] | 32
